US4740498A, “Fibronectin preparations” (Green Cross Corporation, priority 1984, dated 1988)

System: corneal epithelium of rabbits
Experiment: Therapeutic effect in model of corneal disturbance (refrigeration trauma on the corneal epithelium)
Assay type: in vivo
Conditions: 400 μg/ml into the eyes, FN = eye drops of Example 2, albumin = control
Protocol: The therapeutic effect of the FN preparations of the present invention was examined using a model of corneal disturbance in rabbits. The model was prepared by applying liquid nitrogen to the eyes of rabbits to cause refrigeration trauma on the corneal epithelium. The FN eye drops prepared in Example 2 were administered into the eyes thus suffering from corneal disturbance at a dose of 400 μg-FN/ml, and the wound surface area was measured with the passage of time. As a control, 400 μg/ml of albumin was used.

Albumin
Wound Surface Area, 0 Day (0 Day): 45 mm^2
Wound Surface Area, 1 Day (1 Day): 31 mm^2
Wound Surface Area, 2 Days (2 Days): 33 mm^2
Wound Surface Area, 3 Days (3 Days): 25 mm^2
Wound Surface Area, 4 Days (4 Days): 14 mm^2
